Results: patent EP4623908A1, “USE OF (-)-EPIGALLOCATECHIN GALLATE COMPOUND” (CF Pharmtech, Inc., priority 2022, dated 2024)
Read-outs that look alike come from different tables or passages of the source.

Legend:
[1] = Drug concentration in rat plasma and lungs after tracheal nebulization and oral gavage (Example 2); type: in vivo, rats; details: for Cmax / AUC(0-t): plasma; for AUC(0-t): read-out: Plasma AUC0-t
Procedure: As shown in Example 1, after inhalation (such as tracheal nebulization) administration of 1.6 mg/kg EGCG and oral gavage administration of 60 mg/kg EGCG, the AUC0-t in rat plasma were similar. Based on this, this example investigates the changes in drug concentration in rat plasma and lungs over time after a single lower dose of tracheal nebulization (0.8 mg/kg) compared to oral gavage (60 mg/kg) of EGCG. Both the tracheal nebulization and oral gavage groups consist of 5 rats each.
2.1 Blood Sampling Method: Blood was taken via femoral artery. Samples were taken at 30 minutes, 2 hours, 4 hours, and 6 hours post-administration (4 sampling points). After blood collection, 0.9 wt% physiological saline was used to lavage the lungs twice, then the entire lung was removed, dried with filter paper, and stored at -20°C until further analysis.
2.2 Plasma Sample Processing Method: 1 mL of plasma was mixed with 3 mL of ethyl acetate solution, vortexed, centrifuged, and the supernatant was evaporated to dryness. The residue was reconstituted with a reconstitution solution, vortexed, and 100 µL was used for analysis of plasma drug concentration.
2.3 Lung Tissue Sample Processing Method: Lung tissue samples were weighed, and 3 times the volume of physiological saline (w:v) was added to homogenize. 1 mL of the homogenate was mixed with 3 mL of ethyl acetate solution, vortexed, centrifuged, and the supernatant was evaporated to dryness. The residue was reconstituted with a reconstitution solution, vortexed, and 100 µL was used for analysis of lung drug concentration.

[2] = tested on: Bleomycin-Induced Pulmonary Fibrosis in Mice; test: Bleomycin-induced pulmonary fibrosis model in mice (Example 4); type: in vivo, C57BL/6J mice; details: for Hydroxyproline Content: mouse lung tissue, Mean±SEM
Procedure: A total of 56 male C57BL/6J mice, SPF grade, aged 7-10 weeks, with a body weight range of 20-35g, were purchased from SPF (Beijing) Biotechnology Co., Ltd..
Injectable Bleomycin (BLM, 15mg/vial, batch number 20067411): Hanhui Pharmaceutical Co., Ltd. • Solvent 1: Components include purified water, citric acid, and sodium citrate, a transparent, clear liquid. • Solvent 2: Sodium chloride injection (batch number K21080307), purchased from Hanhui Pharmaceuticals Co., Ltd (formerly Hisun-Pfizer Pharmaceuticals Co., Ltd.). • Hydroxyproline (HYP) assay kit: Purchased from Merck Sigma-Aldrich.
The mice were randomly divided into the following groups, with 8 mice in each group: • Sham operation group (normal control group), • Pulmonary fibrosis model group, • Oral gavage group, • Tracheal Nebulization groups 1-4.
On Day 1 (D1), the normal control group mice were administered solvent 2 (sodium chloride injection, 1 mL/kg) via tracheal nebulization. All other groups were administered bleomycin (2 mg/kg, 1 mL/kg) via tracheal nebulization in the morning and afternoon to construct the pulmonary fibrosis model.
The oral gavage dose for mice was 100 mg/kg (calculated based on the oral dose of 60 mg/kg for rats, according to FDA guidelines, and converted for equivalent oral dosage in mice by body surface area). The tracheal nebulization doses were 0.2 mg/kg, 0.4 mg/kg, 0.8 mg/kg, and 1.6 mg/kg. Both the normal control group and the pulmonary fibrosis model group were administered solvent 1 via tracheal nebulization once a day, starting on D10 post-model induction.
Mice from each group were anesthetized on Day 22 via intraperitoneal injection of chloral hydrate (50 mg/mL, 0.1 mL/10g) and sacrificed by abdominal aorta blood collection. All animals underwent dissection, and lung tissues were preserved. The total lung weight (including animals that died unexpectedly or were euthanized) was measured. The left lung was excised and stored at below -60°C for hydroxyproline content testing. The remaining right lung tissue and bronchioles were fixed in 10% neutral-buffered formalin and processed for routine histology: paraffin embedding, sectioning, HE staining, and Masson staining.
Lung coefficient = lung weight (mg)/body weight (g). [formula] Early-stage inflammation with infiltration of inflammatory cells, followed by the proliferation of fibroblasts and excessive collagen deposition, leads to an increase in lung coefficient. Thus, the lung coefficient serves as an indirect indicator of the inflammation and fibrosis degree in mice.
Mice were weighed prior to grouping, on the model induction day, after the first drug administration, and every 3 days thereafter. […] Changes in body weight reflect the effect of the drug administration. Statistical analysis was performed using two-way ANOVA and Tukey's multiple comparison test.
Lung tissue inflammation, fibroproliferation, and other pathological changes were evaluated by optical microscopy on HE-stained sections. Masson staining was used to assess the degree of fibrosis in lung tissue. Standardized terminology was applied to classify fibrosis, inflammatory cell infiltration, alveolar hemorrhage, dilation, epithelial hyperplasia, and fibrous exudate using a 4-point scale (mild, moderate, severe, and very severe).
Hydroxyproline content in lung tissue was measured according to the instructions of the assay kit.
Statistical tests commonly used in the field, such as Student's t-test, chi-square test, Mann-Whitney U test, Kruskal-Wallis test (H test), Jonckheere-Terpstra test, and Wilcoxon test, were performed. Statistical analysis was done using SPSS (13.0) software. Results are presented as mean ± standard error. Overall differences were evaluated by One-Way ANOVA for homogeneity of variance, followed by Dunnett's test for inter-group comparisons. When normality tests failed, Kruskal-Wallis test was used for inter-group comparisons. Two-Way ANOVA and Tukey's test were used for multiple comparisons between groups. […]

[3] = inhaled, tracheal nebulization (inh.0.8mg/kg)
[4] = tracheal nebulization (inh.0.8mg/kg)

In the case of `O=C(O[C@@H]1Cc2c(O)cc(O)cc2O[C@@H]1c1cc(O)c(O)c(O)c1)c1cc(O)c(O)c(O)c1` [EGCG, (-)-Epigallocatechin gallate], the Kp ([1]; lung and plasma, inhaled, after inhalation 0.8 mg/kg, read-out: drug concentration in the lungs relative to that in plasma (higher)) is reported as 100, the “Lung AUC0-t” value ([1]; oral gavage (po. 60mg/kg)) is reported as 115 ng·h/mL and the “Lung Cmax” value ([1]; oral gavage (po. 60mg/kg)) is reported as 34.5 ng/mL. For the same compound, the Cmax [1, 3] was 153 ng/mL, the AUC(0-t) [1, 3] was 292 ng·h/mL and the Cmax ([1]; oral gavage (po. 60mg/kg)) was 46 ng/mL. The AUC(0-t) ([1]; oral gavage (po. 60mg/kg)) was 136 ng·h/mL, the “Lung AUC0-t” value [1, 4] was 30891 ng·h/mL and the “Lung Cmax” value [1, 4] was 12720 ng/mL. For the same compound, the “fibrosis score vs model group” value ([2]; aerosol dose 0.4mg/kg or higher, P < 0.05) was “significant reduction in pulmonary fibrosis”, the inhibiting alveolar expansion ([2]; all tracheal nebulization groups (0.2, 0.4, 0.8, 1.6mg/kg), 0.4mg/kg most effective) was “significant differences compared to the model group” and the “inhibiting inflammatory cell infiltration” value ([2]; all tracheal nebulization groups, 0.4mg/kg best (P < 0.05)) was “reduced inflammatory cell infiltration”. The “fibrosis in the lungs (Masson's staining)” value ([2]; inhaling 0.8mg/kg and 1.6mg/kg, D22) was “almost close to the level of the healthy control group”, the “Hydroxyproline Content” value ([2]; D22, Inh. 0.2mg/kg once a day from D10) was 2.807 ± 0.3982 µg/µL and the “Hydroxyproline Content” value ([2]; D22, Inh. 0.4mg/kg once a day from D10) was 2.046 ± 0.690 µg/µL. The “Hydroxyproline Content” value ([2]; D22, Inh. 0.8mg/kg once a day from D10) was 1.033 ± 0.1476 µg/µL, the “Hydroxyproline Content” value ([2]; D22, Inh. 1.6 mg/kg once a day from D10) was 1.67 ± 0.1888 µg/µL and the “Hydroxyproline Content” value ([2]; D22, P.O 100mg/kg once a day from D10) was 1.928 ± 0.1326 µg/µL. For the same compound, the “collagen deposition (Masson's staining) vs model group” value ([2]; oral administration 100 mg/kg, difference not significant, D22) was “decreased slightly”, the “lung tissue histopathology (H&E staining)” value ([2]; oral administration 100 mg/kg, no significant difference vs model group, D22) was “slight improvement in lung tissue morphology” and the “inhibiting inflammatory cell infiltration” value ([2]; oral administration (oral gavage) 100 mg/kg) was “no anti-inflammatory effect”. The “alveolar inflammation scores vs model group” value ([2]; oral gavage 100 mg/kg) was “no significant difference”, the body weight ([2]; oral gavage 100 mg/kg) was “weight gain in the oral gavage group was slower” and the “fibrosis score vs model group” value ([2]; oral gavage 100 mg/kg) was “did not show a significant difference”. The “lung coefficient vs model group” value ([2]; oral gavage 100 mg/kg) was “did not show a significant difference”, the “alveolar inflammation scores vs model group” value ([2]; tracheal nebulization) was “significantly suppressed the further development of alveolar inflammation” and the inhibiting alveolar hemorrhage ([2]; tracheal nebulization 0.2mg/kg and 0.4mg/kg) was “significantly better than the oral gavage group”. For the same compound, the “lung coefficient vs model group” value ([2]; tracheal nebulization 0.2mg/kg and 0.4mg/kg, P < 0.01, P < 0.001) was “significantly reduced”, the body weight ([2]; tracheal nebulization 0.2mg/kg and 0.4mg/kg, significant vs model group) was “returned to baseline levels by Day 22” and the “hydroxyproline content in lung tissue (in words)” value ([2]; tracheal nebulization 0.2mg/kg, 0.4mg/kg, and 0.8mg/kg, D22) was “dose-dependently reduced”. The “inhibiting alveolar fibrous exudates” value ([2]; tracheal nebulization 1.6mg/kg) was “significant differences compared to the model group”, the “lung tissue histopathology (H&E staining)” value ([2]; tracheal nebulization, best at 0.4mg/kg and 0.8mg/kg, D22) was “reduced alveolar interstitial proliferation” and the “collagen deposition (Masson's staining) vs model group” value ([2]; tracheal nebulization, dose-response, especially 0.4mg/kg and above, D22) was “significantly reduced collagen deposition”.
